Key:
[1] = Surface Plasmon Resonance binding to immobilized 3-Lipid II; conditions: SPR; for Binding on Lipid II?: Table S3, initial determination at 10 µM
Outline: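 Binding was measured by Surface Plasmon Resonance on a BIAcore T100 instrument at 25°C. Peptides were injected over the sensor flow-cells at 30 µl/min in running buffer of 10 mM HEPES, 150 mM NaCl, 0.05% surfactant P20, pH 7.4 (±3 mM EDTA) with 10% DMSO. Control flow-cell signals were subtracted, surfaces were regenerated with 50 mM NaOH, and isotherms were fitted with BIAcore software.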

[2] = system: S. aureus MMX100 (ATCC 29213); assay: Macromolecular synthesis assays (mechanism of action); type: cell-based, Staphylococcus aureus
Procedure: Macromolecular synthesis inhibition by BAS00127538 and 1499-1221 were investigated using S. aureus MMX100 (ATCC 29213). Cells were grown at 35°C overnight on Tryptic Soy Agar Broth (Remel, Lenexa, KS), and growth from the plate was used to inoculate 15 ml of Mueller Hinton Broth. The culture was grown to early exponential growth phase (OD600 = 0.2 to 0.3) while incubating in a shaker at 35°C and 150 rpm. For each macromolecular assay, the test agents 1499-1221 and BAS00127538 were added at either 0, 0.25, 0.5, 1, 2, or 4, -fold their respective MIC values for S. aureus ATCC 29213.
For DNA and protein synthesis, 100 µl of cell culture reaching early exponential phase was added to triplicate wells containing various concentrations of test compound or control antibiotics (2.5 µl) at 40× the final concentration in 100% DMSO (0.1% methanol in water for Rifampicin). A 2.5% DMSO treated culture served as the “no drug” control for all experiments. Cells were added in 1.25× strength MHB to account for the volume of drug added to each reaction, or in M9 minimal medium for protein synthesis reactions. Following a 5 min incubation at room temperature either [^3H]Thymidine (DNA synthesis) or [^3H]Leucine (protein synthesis) was added at 0.5–1.0 µCi per reaction, depending on the experiment. Reactions were allowed to proceed at room temperature for 15–40 min and then stopped by adding 12 µl of cold 5% trichloroacetic acid (TCA) or 5% TCA/2% casamino acids (protein synthesis). Reactions were incubated on ice for 30 min and the TCA precipitated material was collected on a 25 mm GF/1.2 µm PES 96 well filter plate (Corning). After washing five times with 200 µl per well of cold 5% TCA, the filters were allowed to dry, and then counted using a Packard Top Count microplate scintillation counter.
For cell wall synthesis, bacterial cells in early exponential growth phase were transferred to M9 minimal medium and added to 1.5 ml eppendorf tubes (100 µl/tube) containing various concentrations of test compound or control antibiotics (2.5 µl) at 40× the final concentration in 100% DMSO as described above. Following a 5 min incubation at 37°C, [^14C] N-acetyl-glucosamine (0.4 µCi/reaction) was added to each tube and incubated for 45 min in a 37°C heating block. […] After washing three times with 5 ml of 0.1% SDS, the filters were rinsed two times with 5 ml of deionized water, allowed to dry, and then counted using a Beckman LS3801 liquid scintillation counter.
For lipid synthesis, bacterial cells were grown to early exponential growth phase in MHB and 100 µl was added to 1.5 ml Eppendorf tubes (in triplicate) containing various concentrations of test compound or control antibiotics as described above. […] Samples were then counted via liquid scintillation counting. […]

S. aureus ATCC 29213 = assay: Murine peritoneal sepsis model; type: in vivo, C57BL/6J mice; conditions: mice n = 5, i.p. treatment 1 h and 4 h post-infection; compound […], vancomycin/lysostaphin 5 mg/kg
Procedure: Mice were fed standard chow (Harlan Laboratories) and water ad libitum. […] Animals were closely observed during a period of 24 hours and mice that show signs of severe sepsis were humanely euthanized. Blood samples were collected by retro-orbital puncture at the indicated intervals post-infection using lithium-heparin polystyrene tubes to prevent coagulation. […] Whole blood samples and spleen homogenates were serially diluted and plated onto LB agar plates.

human red blood cells = assay: Red Blood Cell (RBC) lysis; type: cell-based; conditions: human RBCs, 30 min, room temperature, up to 16× MIC
Procedure: The method described by Stasiuk et al. was followed in general. Defibrinated human blood (Valley BioMedical) was washed three times with buffer (10 mM Tris-HCl, pH 7.4, 0.9% NaCl) and resuspended to a final concentration of 3% RBCs immediately prior to performing the assay. One hundred eighty microliters of RBCs were added to 1020 µl buffer containing various concentrations of the investigational compound. […] DMSO alone (5% final concentration) served as the negative control to subtract the background, while a reaction with water substituted for buffer served as a positive control that completely lyses the RBCs. […] Incubation of compounds and RBCs proceeded for 30 minutes at room temperature, followed by centrifugation at 1,300× g for 5 minutes to pellet the RBCs. Finally, 300 µl of the supernatant was removed to a 96-well plate and the released hemoglobin was measured at A540 using a SpectraMax (Molecular Dynamics) plate reader. Prism (GraphPad) software was used for data analysis. Results were expressed as percent lysis compared to treatment of RBCs with deionized water, which completely ruptures the membrane. Analyses were performed by Micromyx, LLC (Kalamazoo, Michigan).

| Compound | Binding on Lipid II? [1] | Kd ([1]; immobilized 3-Lipid II) | inhibition of DNA, lipid or protein synthesis ([2]; 1× MIC) | inhibition of cell wall synthesis ([2]; 1× MIC, [14C]N-acetyl-glucosamine incorporation) | DNA, protein and lipid synthesis ([2]; elevated concentrations (above 1× MIC)) | survival (S. aureus ATCC 29213) | lysis of red blood cells (human red blood cells) | likely primary mechanism of action ([2]; mechanism of action studies, Figure S4) |
| --- | --- | --- | --- | --- | --- | --- | --- | --- |
| CN1/C(=C/C=C/c2cc(-c3ccccc3)cc(-c3ccccc3)[o+]2)C(C)(C)c2ccccc21 [BAS00127538, 2,4-diphenyl-6-[(1E)-3-[(2E)-1,3,3-trimethyl-2,3-dihydro-1H-indol-2-ylidene]prop-1-en-1-yl]-1$l^4-pyran-1-ylium] | Yes | 1710 nM | not DNA, lipid or protein synthesis | significantly inhibited cell wall synthesis | reduced | 4 out of five animals | does not induce lysis of red blood cells | – |
| CN(C)c1ccc(/C=C/c2cc(-c3ccccc3)[o+]c(-c3ccccc3)c2)cc1 [Compound 1499-1221] | No | – | – | – | – | – | significant membrane rupture | membrane perturbation |

From PMC3820767, “Turning Defense into Offense: Defensin Mimetics as Novel Antibiotics Targeting Lipid II” (PLoS Pathogens, 2013)
